Where two headings read alike, the source gives them in different places.
Columns and labels:
[1] = Ross-Miles foam height assay of aldonamides (Examples 81-84); type: physicochemical; settings: 0.1% aldonamide, 40° C. (if not soluble, about 5°-10° C. above Krafft point), 0 ppm hardness
Method: In the Ross-Miles method, 200 mL of a suffactant solution contained in a pipette of specified dimensions with a 2.9 -mm-i.d. orifice is allowed to fall 90 cm onto 50 mL of the same solution contained in a cylindrical vessel maintained at a given temperature by means of a water jacket. The height of the foam produced in the cylindrical vessel is read immediately after all the solution has run out of the pipette and then again after a given amount of time.
Using this method, the foam production (initial foam height in mm) and foam stability (final foam height after 10 minutes in mm) were measured at 0.1% aldonamtde concentration, 40° C. and 0 ppm (parts per million) hardness.

[2] = Clarity of prototype shampoo compositions with sodium lauryl sulfate (Example 87); type: physicochemical; settings: room temperature, 6 months
Method: (§1) The prototype shampoo composition is as follows:
(§2) The above formulations were prepared by admixing the above ingredients in listed order and heating the mixture to about 80° C. with rapid stirring. The mixture was then cooled to about 40° C., placed in a clear jar and stored at room temperature for 6 months.

[3] = Viscosity of prototype shampoo compositions with sodium lauryl sulfate, Brookfield Digital Viscometer (Example 88); type: physicochemical; settings: vs no thickener
Method: as §1, §2
It is well known that the viscosity of a liquid composition comprising of anionic surfactant can be modified by the addition of inorganic salts, such as sodium chloride. However, in the absence of an organic modifier, high levels of salt may be necessary to achieve the required viscosity which may lead to problems of storage at cold temperature or even salting out certain ingredients. In practice, however, the viscosity of a liquid composition is modified by the simultaneous addition of thickener and small amounts of inorganic salt (viscosity cobuilder). The combined effect is greater than either one alone. The viscosity of the above prototype shampoo composition comprising various amounts of heteroatom containing alkyl aldonamide compound is as follows: […]

[4] = Viscosity of prototype shampoo compositions of Example 86, Brookfield Digital Viscometer; type: physicochemical; settings: 4.0% thickener
From the text: The results are as follows:

[5] = test system: zein
From the text: The zein solubilization assay was developed to determine the biological effects of surfactants on the skin. The protein is normally in soluble in water, but can be brought into solution by interaction with surfactants. The extent of zein dissolved is related to the irritation potential (M. J. Schwinger, Kolloid-Z. Z. Poly., 233, 848, 1969). The greater the zein solubilization, the greater the irritation potential of that surfactant on the skin.
Thus, a 1% solution of surfactant (30 mls) was added to 1.5 g of zein and stirred at room temperature for 1 hour. Residual zein was collected and dried to constant weight. Differences between starting and residual weights were used to calculate % zein solubilized.

[6] = Surface tension at the water/air interface (Example 91); type: physicochemical; settings: 60 °C
Method: An important characteristic feature that surfactants have is the tendency for them to absorb at the water/air interface in an oriented manner, thereby altering the interfacial free energy of that surface. The surface free energy per unit area or surface tension (γ), is a measure of this work and may be considered as the minimum amount of work required to bring sufficient surfactant molecules to the surface.
The surface tension (γ) value of C8 /C10 oxypropyl D-gluconamide was determined and is set forth below: […]

[7] = Effectiveness in reducing surface tension (Example 93); type: physicochemical; settings: 60 °C
From the text: As mentioned before, surface tension reduction depends on the replacement of water molecules at the interface by surfactant molecules, therefore the effectiveness of a surfactant in reducing interfacial surface tension should reflect the saturated concentration of surfactant at the interface relative to that in bulk liquid phase. During this process the surface tension of water steadily decreases as bulk phase surfactant concentration increases. This will continue until the concentration reaches the critical micelle concentration (CMC), above which the surface tension remains nearly unchanged and the interface is saturated with surfactant. The surface tension at the CMC is therefore very close to the minimum interfacial tension or maximum surface pressure that the system can achieve. The surface pressure at this point, IIcmc, is a suitable measure of the effectiveness of a surfactant in reducing surface tension and is given as:
.PI.cmc 20+2.3nRT(Γmax) log [CMC/C20 ]
n=1 which represents the number of ions whose surface concentration changes with the change in liquid phase suffactant concentration.
CMC/C20 =is the ratio of the critical micelle concentration to the bulk phase surfactant concentration necessary to reduce the surface tension of water by 20 dyn/cm.

[8] = Area per molecule at the water/air interface (Example 95); type: physicochemical; settings: 60 °C
From the text: The area per molecule of a surfactant at the water/air interface provides information on the degree of packing and the orientation of the adsorbed surfactant molecule. While not wishing to be bound by theory, it is believed that surfactants that have small area per molecule values tend to pack more closely at the interface than those with large area per molecule values. From the surface excess concentration at surface saturation (Γmax), the area per molecule (am) of C8 /C10 oxypropyl D-gluconamide was determined and is given by:
am =1×10^16 /Nav Γmax

[9] = Micellar shape and structure, packing parameter (Example 96); settings: T=333.15° K.
From the text: A theory of miceIlar structure, based upon the geometry of various micelle shapes and the space occupied by the surfactant has been disclosed by J. N. Israelachvili, D. J. Mitchell and B. W. Ninham in the J. Chem. Soc. Faraday Trans. 2, 1525, 72, (1976) which is given as the packing parameter (p).
VT =V(CH3) +(nc -1)V(CH2) and represents the volume occupied by the hydrophobic groups in the miceliar core at a given temperature.
1c= 1.50+1.26 nc Å and represents the length of the hydrophobic group in the core.
am =area per molecule or the cross-sectional area occupied by the hydrophilic group at the interface.
nc =total number of carbons in the alkyl chain.

[10] = Efficiency in surface tension reduction, pC20 (Example 92); type: physicochemical; settings: 60 °C, estimated by extrapolation
From the text: Since surface tension reduction depends on the replacement of water molecules at the interface by surfactant molecules, the efficiency of a surfactant in reducing interfacial tension should reflect the concentration of surfactant at the interface relative to that in bulk liquid phase. A suitable measure of efficiency with which a surfactant performs this function can be described as pC20. This is defined as the negative logarithm of the bulk phase surfactant concentration necessary to reduce the surface tension of water by 20 dyn/cm and is given as:
pC20 =-log [C(-Δγ=20) ]=-log [C20]
C(-Δγ=20) =C20 is the bulk phase surfactant concentration necessary to reduce the surface tension of water by 20 dyn/cm.
In general, pC20 values are usually close to the minimum concentration needed to saturate the interface with surfactant molecules.

[11] = Effectiveness of adsorption, surface excess concentration at surface saturation (Example 94); type: physicochemical; settings: 60 °C, estimated by extrapolation
From the text: The surface excess concentration at surface saturation (Γmax) is defined as a measure of the effectiveness of surfactant adsorption at the water/air interface and represents the maximum value to which adsorption can be obtained. Effectiveness of adsorption is related to the interfacial area occupied by the surfactant molecule. The smaller the effective cross-sectional area of a surfactant at the interface, the greater its effectiveness of adsorption. The effectiveness of adsorption is an important factor in determining surfactant properties such as detergency, foaming, wetting or emulsification. While not wishing to be bound by theory, it is believed that surfactants that absorb effectively at the interface tend have tightly packed coherent interfacial films and often provide better surfactant benefits than those with loosely packed noncoherent films. The effectiveness of adsorption of C8 /C10 oxypropyl D-gluconamide was determined using the Gibbs equation given as: […]
ergs/cm^2 (which is equivalent to the slope of a plot of γ

[12] = Rosen, cited from earlier work
[13] = Rosen, cited from earlier work; remark: listed apart in the source
[14] = Rosen, cited from earlier work; remark: listed apart in the source
[15] = Rosen, cited from earlier work; remark: listed apart in the source

C8 /C10 oxypropyl D-gluconamide
Foam Height Initial [1]: 212 mm | Foam Height Final ([1]; after 10 minutes): 165 mm | Appearance (Time) ([2]; 3.0% thickener in […] sodium lauryl sulfate shampoo): Clear | Appearance (Time) ([2]; 4.0% thickener in […] sodium lauryl sulfate shampoo): Clear | Appearance (Time) ([2]; 5.0% thickener in […] sodium lauryl sulfate shampoo): Clear | Increase (viscosity) ([3]; 1.0% thickener): 13 × | Increase (viscosity) ([3]; 2.0% thickener): 27 × | Increase (viscosity) ([3]; 3.0% thickener): 80 × | Increase (viscosity) ([3]; 4.0% thickener): 148 × | Increase (viscosity) ([3]; 5.0% thickener): 860 × | increased the viscosity of that composition ([4]; Example 86 shampoo (2395/22)): 109 times | Viscosity ([4]; Example 86 shampoo, 22° C.): 2395 Centipoise | % Zein Solubilized [5]: 6% | γ (surface tension) [6]: 29.2 dyn/cm | .PI.cmc (surface pressure) [7]: 38.5 dyn/cm | am (area per molecule) [8]: 43.1 Å^2 | p (packing parameter) [9]: 0.503

CCCCCCCCCCCCOCCOCCOCCOCCOCCOCCOCCOCCO [Dodecylocta(oxyethylene) Ether]
pC20 [10]: 5.39 | .PI.cmc (surface pressure) ([7]; estimated by extrapolation): 36.3 dyn/cm | Γmax (surface excess concentration at surface saturation) [11]: 2.40 × 10^-10 mole/cm^2 | am (area per molecule) ([8]; estimated by extrapolation): 69.0 Å^2 | pC20 ([12]; 25 °C): 5.20 | pC20 ([12]; 40 °C): 5.22 | .PI.cmc (surface pressure) ([13]; 25 °C): 37.2 dyn/cm | CMC/C20 ([13]; 25 °C): 17.3 | .PI.cmc (surface pressure) ([13]; 40 °C): 37.3 dyn/cm | CMC/C20 ([13]; 40 °C): 15.4 | Γmax (surface excess concentration at surface saturation) ([14]; 25 °C): 2.52 × 10^-10 mole/cm^2 | Γmax (surface excess concentration at surface saturation) ([14]; 40 °C): 2.46 × 10^-10 mole/cm^2 | am (area per molecule) ([15]; 25 °C): 66.0 Å^2 | am (area per molecule) ([15]; 40 °C): 67.4 Å^2

— patent US5641480A, “Hair care compositions comprising heteroatom containing alkyl aldonamide compounds” (Lever Brothers Company, Division of Conopco, Inc., priority 1994, dated 1997)
